The first assay deals with T1, human GPR119 receptor (Homo sapiens, UniProt Q8TDV5, S329A/T327A).
T1 construct: N-terminal leader […]; expressed in transfected cells
T1 sequence (Q8TDV5 with tags, fused parts or gaps T327A/S329A): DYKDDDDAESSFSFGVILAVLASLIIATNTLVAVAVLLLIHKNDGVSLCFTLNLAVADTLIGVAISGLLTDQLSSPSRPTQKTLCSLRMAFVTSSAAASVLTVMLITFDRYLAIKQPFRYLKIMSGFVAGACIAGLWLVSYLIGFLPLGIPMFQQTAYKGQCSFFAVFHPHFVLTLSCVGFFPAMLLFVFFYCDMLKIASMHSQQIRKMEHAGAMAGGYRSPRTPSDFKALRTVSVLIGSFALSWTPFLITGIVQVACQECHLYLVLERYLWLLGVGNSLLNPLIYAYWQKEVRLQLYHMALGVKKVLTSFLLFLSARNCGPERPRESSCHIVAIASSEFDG
As to the kind of experiment: cAMP assay (LANCE cAMP-384) in HEK293 cells stably expressing mutant human GPR119 receptor. It counts as cell-based. The settings on record: cAMP accumulation, HEK293 cells stably expressing mutant human GPR119; read-out: EC50. Summed up: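 Agonist EC50 came from nonlinear regression over 12 concentrations (30 μM–100 pM), with % stimulation at 10 μM where no EC50 was obtained. Cells: stable HEK293 with mutant human GPR119 (T327A/S329A), 20 min compound at 37° C; cAMP read by LANCE kit with standard curve.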
(Cyclic AMP is a second messenger, typically raised through Gs and lowered through Gi signalling.)
As to `CC(C)OC(=O)N1CCC(ON=C2CCN(c3cc(F)c(C(=O)NCC(=O)O)cc3F)CC2)CC1` [Example 30-1, 4-{1-[4-(Carboxymethyl-carbamoyl)-2,5-difluoro-phenyl]-piperidin-4-ylideneaminooxy}-piperidine-1-carboxylic acid isopropyl ester], the EC50 was 1130 nM. Still for that read-out and setting: the result for `CC(C)OC(=O)N1CCC(ON=C2CCN(c3cc(F)c(C(=O)NCCC(=O)O)cc3F)CC2)CC1` [Example 30-2] reads 1150 nM. For `CNCCNC(=O)c1cc(F)c(N2CCC(=NOC3CCN(C(=O)OC(C)C)CC3)CC2)cc1F` [Example 31-1, 4-{1-[2,5-Difluoro-4-(2-methylamino-ethylcarbamoyl)-phenyl]-piperidin-4-ylideneaminooxy}-piperidine-1-carboxylic acid isopropyl ester], the EC50 turned out to be 424 nM. Take `CC(C)OC(=O)N1CCC(ON=C2CCN(c3cc(F)c(C(=O)NCCN)cc3F)CC2)CC1` [Example 31-2]: the EC50 is 348 nM. On the same count and under the same terms, the result for `CC(C)OC(=O)N1CCC(ON=C2CCN(c3cc(F)c(C(=O)NCCCN)cc3F)CC2)CC1` [Example 31-3] reads 542 nM; that for `CC(C)OC(=O)N1CCC(ON=C2CCN(c3ccccc3)CC2)CC1` [Example 32-1, 4-(1-Phenyl-piperidin-4-ylideneaminooxy)-piperidine-1-carboxylic acid isopropyl ester], greater than 10000 nM. Still for that read-out and setting: the result for `CC(C)OC(=O)N1CCC(ON=C2CCN(c3cc(F)ccc3F)CC2)CC1` [Example 32-2] reads 2860 nM; that for `CC(C)OC(=O)N1CCC(ON=C2CCN(c3cccc(S(C)(=O)=O)c3)CC2)CC1` [Example 32-3], greater than 10000 nM; that for `CC(=O)Nc1cc(F)c(N2CCC(=NOC3CCN(C(=O)OC(C)C)CC3)CC2)cc1F` [Example 35-1, 4-[1-(4-Acetylamino-2,5-difluoro-phenyl)-piperidin-4-ylideneaminooxy]-piperidine-1-carboxylic acid isopropyl ester], 17 nM. On the same count and under the same terms, the result for `CCOC(=O)Nc1cc(F)c(N2CCC(=NOC3CCN(C(=O)OC(C)C)CC3)CC2)cc1F` [Example 35-2] reads 18 nM. With `CC(C)OC(=O)N1CCC(ON=C2CCN(c3cc(F)c(NC(=N)N)cc3F)CC2)CC1` [Example 36-1, 4-[1-(2,5-Difluoro-4-guanidino-phenyl)-piperidin-4-ylideneaminooxy]-piperidine-1-carboxylic acid isopropyl ester], the EC50 amounted to 1320 nM.

As for `CC(C)OC(=O)N1CCC(ON=C2CCN(c3cc(F)c(NC(N)=O)cc3F)CC2)CC1` [Example 37-1, 4-[1-(2,5-Difluoro-4-ureido-phenyl)-piperidin-4-ylideneaminooxy]-piperidine-1-carboxylic acid isopropyl ester], the EC50 is 71 nM. The same measure, in the same setting: the result for `CC(C)OC(=O)N1CCC(ON=C2CCN(c3cc(F)c(NS(N)(=O)=O)cc3F)CC2)CC1` [Example 38-1] reads 197 nM; that for `CC(C)OC(=O)N1CCC(ON=C2CCN(c3cc(F)c(/C=C/C(=O)O)cc3F)CC2)CC1` [Example 40-1, 4-{1-[4-((E)-2-Carboxy-vinyl)-2,5-difluoro-phenyl]-piperidin-4-ylideneaminooxy}-piperidine-1-carboxylic acid isopropyl ester], 2570 nM. Same read-out and setting: the result for `CC(C)OC(=O)N1CCC(ON=C2CCN(c3cc(F)c(COC(=O)[C@@H](NC(=O)OC(C)(C)C)C(C)C)cc3F)CC2)CC1` [Example 42-1, 4-{1-[4-((S)-2-tert-Butoxycarbonylamino-3-methyl-butyryloxymethyl)-2,5-difluoro-phenyl]-piperidin-4-ylideneaminooxy}-piperidine-1-carboxylic acid isopropyl ester] reads 928 nM. `CC(C)OC(=O)N1CCC(ON=C2CCN(c3cc(F)c([S+](C)[O-])cc3F)CC2)CC1` (stereo not shown) [Example 43-1, 4-[1-(2,5-Difluoro-4-methanesulfinyl-phenyl)-piperidin-4-ylideneaminooxy]-piperidine-1-carboxylic acid isopropyl ester]: the EC50 turned out to be 58 nM.

For `CC(C)OC(=O)N1CCC(ON=C2CCN(c3cc(F)c(NS(C)(=O)=O)cc3F)CC2)CC1` [Example 44-1, 4-[1-(2,5-Difluoro-4-methanesulfonylamino-phenyl)-piperidin-4-ylideneaminooxy]-piperidine-1-carboxylic acid isopropyl ester], the EC50 came to 170 nM.

Still in this assay, the particulars now being: the 19th table; unit inferred; read-out: EC 50.
For `CCc1cnc(N2CCC(ON=C3CCN(c4cc(F)c(C(=O)NCC[C@H](N)C(=O)O)cc4F)CC3)CC2)nc1` [Example 29-117], the EC50 was 745 nM.

For `CCc1cnc(N2CCC(ON=C3CCN(c4cc(F)c(C(=O)N5CC[C@@H](N)C5)cc4F)CC3)CC2)nc1` [Example 29-118], the EC50 is 201 nM. As for `CCc1cnc(N2CCC(ON=C3CCN(c4cc(F)c(C(=O)N5CC[C@H](N)C5)cc4F)CC3)CC2)nc1` [Example 29-119], the EC50 came out at 75 nM.

Consider `CCc1cnc(N2CCC(ON=C3CCN(c4cc(F)c(C(=O)N5CC[C@H](CN)C5)cc4F)CC3)CC2)nc1` [Example 29-120], for which the EC50 was found to be 202 nM. Still for that read-out and setting: then `CCc1cnc(N2CCC(ON=C3CCN(c4cc(F)c(C(=O)NCC5CCCN5)cc4F)CC3)CC2)nc1` (stereo not shown) [Example 29-121], with 139 nM; and `CCc1cnc(N2CCC(ON=C3CCN(c4cc(F)c(C(=O)NCC5CCCN5)cc4F)CC3)CC2)nc1` (stereo not shown) [Example 29-122], with 176 nM; and `CCc1cnc(N2CCC(ON=C3CCN(c4cc(F)c(C(=O)NC5CCNC5)cc4F)CC3)CC2)nc1` (stereo not shown) [Example 29-123], with 407 nM. On the same count and under the same terms, then `CCc1cnc(N2CCC(ON=C3CCN(c4cc(F)c(C(=O)N5CCCC(CN)C5)cc4F)CC3)CC2)nc1` (stereo not shown) [Example 29-124], with 55 nM. The same measure, in the same setting: the result for `CCc1cnc(N2CCC(ON=C3CCN(c4cc(F)c(C(=O)N5CCC(CN)CC5)cc4F)CC3)CC2)nc1` [Example 29-125] reads 168 nM; that for `CCc1cnc(N2CCC(ON=C3CCN(c4cc(F)c(C(=O)N5CCC(N)CC5)cc4F)CC3)CC2)nc1` [Example 29-126], 469 nM.

For the compound `CCc1cnc(N2CCC(ON=C3CCN(c4cc(F)c(C(=O)NC5CCCNC5)cc4F)CC3)CC2)nc1` (stereo not shown) [Example 29-127], the EC50 came to 322 nM. Still for that read-out and setting: then `CCc1cnc(N2CCC(ON=C3CCN(c4cc(F)c(C(=O)NCC5CCNCC5)cc4F)CC3)CC2)nc1` [Example 29-128], with 70 nM. Same read-out and setting: then `CCc1cnc(N2CCC(ON=C3CCN(c4cc(F)c(C(=O)N5CCCC(CNC)C5)cc4F)CC3)CC2)nc1` (stereo not shown) [Example 29-129], with 50 nM. On the same count and under the same terms, then `CCc1cnc(N2CCC(ON=C3CCN(c4cc(F)c(C(=O)N5CCC(CNC)CC5)cc4F)CC3)CC2)nc1` [Example 29-130], with 206 nM. With `CCc1cnc(N2CCC(ON=C3CCN(c4cc(F)c(C(=O)N5CCCCC5CN)cc4F)CC3)CC2)nc1` (stereo not shown) [Example 29-131], the EC50 was 64 nM. As for `CCc1cnc(N2CCC(ON=C3CCN(c4cc(F)c(C(=O)N5CCC[C@@H]5CN)cc4F)CC3)CC2)nc1` [Example 29-132], the EC50 came out at 114 nM. Same read-out and setting: the result for `CCc1cnc(N2CCC(ON=C3CCN(c4cc(F)c(C(=O)N5CCC[C@H]5CN)cc4F)CC3)CC2)nc1` [Example 29-133] reads 164 nM; that for `CCc1cnc(N2CCC(ON=C3CCN(c4cc(F)c(C(=O)N5CCC[C@H]5CNC)cc4F)CC3)CC2)nc1` [Example 29-134], 437 nM; that for `CCc1cnc(N2CCC(ON=C3CCN(c4cc(F)c(C(=O)N5CCC[C@@H]5CNC)cc4F)CC3)CC2)nc1` [Example 29-135], 297 nM. Regarding `CCc1cnc(N2CCC(ON=C3CCN(c4cc(F)c(C(=O)N5CCCCC5CNC)cc4F)CC3)CC2)nc1` (stereo not shown) [Example 29-136], the EC50 stood at 120 nM. Regarding `CCc1cnc(N2CCC(ON=C3CCN(c4cc(F)c(C(=O)NCC5CCCN5C)cc4F)CC3)CC2)nc1` (stereo not shown) [Example 29-137], the EC50 stood at 212 nM.

As for `CCc1cnc(N2CCC(ON=C3CCN(c4cc(F)c(C(=O)NCC5CCCN5C)cc4F)CC3)CC2)nc1` (stereo not shown) [Example 29-138], the EC50 was 185 nM.

Consider `CCc1cnc(N2CCC(ON=C3CCN(c4cc(F)c(C(=O)NCC5CCNC5)cc4F)CC3)CC2)nc1` (stereo not shown) [Example 29-139], for which the EC50 is 92 nM.

Still in this assay, the particulars now being: the 25th table; read-out: EC50.
As for `COC(=O)/C=C/c1cc(F)c(N2CCC(=NOC3CCN(C(=O)OC(C)C)CC3)CC2)cc1F` [Example 39-1, 4-{1-[2,5-Difluoro-4-((E)-2-methoxycarbonyl-vinyl)-phenyl]-piperidin-4-ylideneaminooxy}-piperidine-1-carboxylic acid isopropyl ester], the EC50 was 46 nM. Same read-out and setting: then `CC(C)OC(=O)N1CCC(ON=C2CCN(c3cc(F)c(/C=C/C#N)cc3F)CC2)CC1` [Example 39-2], with 157 nM.

The assay is the same for the next values; noted with them: the 26th table; read-out: EC50.
With `CC(C)OC(=O)N1CCC(ON=C2CCN(c3ncc(S(C)(=O)=O)cc3F)CC2)CC1` [Example 46-1, 4 (5′-METHYLSULFONYL-3′-FLUORO-2,3,5,6-TETRAHYDRO-[1,2′]BIPYRIDINYL-4-YLIDENEAMINOOXY)-PIPERIDINE-1-CARBOXYLIC ACID ISOPROPYL ESTER], the EC50 was 131 nM. Still for that read-out and setting: then `CC(C)OC(=O)N1CCC(ON=C2CCN(c3cc(F)c(S(C)(=O)=O)cc3F)CC2)CC1` [Example 46-2], with 28 nM. As to `CC(C)OC(=O)N1CCC(ON=C2CCN(c3ccc(S(C)(=O)=O)cn3)CC2)CC1` [Example 46-3], the EC50 turned out to be 614 nM. The same measure, in the same setting: the result for `CC(C)OC(=O)N1CCC(ON=C2CCN(c3ncc(S(C)(=O)=O)cn3)CC2)CC1` [Example 46-4] reads 157 nM.

Values taken from patent US8293729B2 (Boehringer Ingelheim International GmbH, priority 2009, dated 2012).
